# Measured values as given in patent US20230114728A1 (Venatorx Pharmaceuticals, Inc., priority 2019, published 2023).
# Legend:
# Assay type in all cases: cell-based
# E. coli AG100A = experiment: Broth microdilution MIC in CAMHB; details: Escherichia coli, read-out: Minimum Inhibitory Concentration, E. coli AG100A
# In short: (§1)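 CLSI broth microdilution in CAMHB: 2-fold compound dilutions inoculated at 2-8×10^5 CFU/mL from 3-5 h log-phase cultures. Incubated at 37 °C for 16-20 h (Enterobacteriaceae, Pseudomonas); MIC read visually as lowest concentration without growth. Strains include hyper-permeable and efflux-deficient mutants.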
# E. coli ATCC 25922 = experiment: Broth microdilution MIC in CAMHB; details: Escherichia coli, ATCC25922; E. coli ATCC 25922; MHB; read-out: Minimum Inhibitory Concentration, E. coli 25922
# In short: as §1
# E. coli D22 = experiment: Broth microdilution MIC in CAMHB; details: Escherichia coli; E. coli D22 (hyper-permeable); MHB; read-out: Minimum Inhibitory Concentration, E. coli D22
# In short: as §1
# [1] = tested on: P. aeruginosa (ΔmexAB-oprM); experiment: Broth microdilution MIC in CAMHB; details: Pseudomonas aeruginosa, read-out: Minimum Inhibitory Concentration, P. aeruginosa ΔmexAB-OprM
# In short: as §1
# [2] = tested on: N. gonorrhoeae ATCC 49226; experiment: Liquid broth MIC in Fastidious broth; details: Neisseria gonorrhoeae, ATCC49226; N. gonorrhoeae strain ATCC 49226; Fastidious broth; read-out: Minimum Inhibitory Concentration, N. gonorrhoeae ATCC 49226
# In short: (§2)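 Colonies were swabbed from chocolate agar after 24 h growth and standardised by optical density at 600 nm. Compounds were serially diluted twofold in Fastidious broth, and bacteria added to give 5×10^5 CFU/mL. After about 24 h at 36 °C in 5% CO2, the lowest concentration allowing under 10% growth was taken as MIC.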
# N. gonorrhoeae FA1090 = experiment: Liquid broth MIC in Fastidious broth; details: Neisseria gonorrhoeae; N. gonorrhoeae strain FA1090; Fastidious broth; read-out: Minimum Inhibitory Concentration, N. gonorrhoeae FA1090
# In short: as §2
# N. gonorrhoeae H041 = experiment: Liquid broth MIC in Fastidious broth; details: Neisseria gonorrhoeae, H041, read-out: Minimum Inhibitory Concentration, N. gonorrhoeae H041
# In short: (§3)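 Mosaic PBP2 producers; colonies from 24 h chocolate agar, saline suspension, OD600. Fastidious broth, 2-fold dilutions, 5×10^5 CFU/mL. ~24 h, 36 °C, 5% CO2; visual MIC, <10% growth cutoff.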
# N. gonorrhoeae WHO G = experiment: Liquid broth MIC in Fastidious broth; details: Neisseria gonorrhoeae; N. gonorrhoeae strain WHO G; Fastidious broth; read-out: Minimum Inhibitory Concentration, N. gonorrhoeae WHO G
# In short: as §2
# N. gonorrhoeae WHO K = experiment: Liquid broth MIC in Fastidious broth; details: Neisseria gonorrhoeae, read-out: Minimum Inhibitory Concentration, N. gonorrhoeae WHO K
# In short: as §3
# N. gonorrhoeae WHO L = experiment: Liquid broth MIC in Fastidious broth; details: Neisseria gonorrhoeae; N. gonorrhoeae strain WHO L; Fastidious broth; read-out: Minimum Inhibitory Concentration, N. gonorrhoeae WHO L
# In short: as §2
Compound,MIC (E. coli AG100A),MIC (E. coli ATCC 25922),MIC (E. coli D22),MIC [1],MIC [2],MIC (N. gonorrhoeae FA1090),MIC (N. gonorrhoeae H041),MIC (N. gonorrhoeae WHO G),MIC (N. gonorrhoeae WHO K),MIC (N. gonorrhoeae WHO L)
"NCCN1CCN(C(=O)NC(C(=O)N[C@H]2Cc3ccc(F)c(C(=O)O)c3OB2O)c2nc(N)sc2F)C(=O)C1=O (stereo partly drawn) [Example 24, (3R)-3-(2-(2-amino-5-fluorothiazol-4-yl)-2-(4-(2-aminoethyl)-2,3-dioxopiperazine-1-carboxamido)acetamido)-7-fluoro-2-hydroxy-3,4-dihydro-2H-benzo[e][1,2]oxaborinine-8-carboxylic acid]",8 to 16 µg/mL,32 to 64 µg/mL,8 to 16 µg/mL,32 to 64 µg/mL,> 64 µg/mL,16 to 32 µg/mL,> 64 µg/mL,16 to 32 µg/mL,> 64 µg/mL,> 64 µg/mL
"CCN1CCN(C(=O)NC(C(=O)N[C@H]2Cc3ccc(F)c(C(=O)O)c3OB2O)c2nc(N)sc2F)C(=O)C1=O (stereo partly drawn) [Example 18, (3R)-3-(2-(2-amino-5-fluorothiazol-4-yl)-2-(4-ethyl-2,3-dioxopiperazine-1-carboxamido)acetamido)-7-fluoro-2-hydroxy-3,4-dihydro-2H-benzo[e][1,2]oxaborinine-8-carboxylic acid]",2 to 4 µg/mL,8 to 16 µg/mL,2 to 4 µg/mL,8 to 16 µg/mL,4 to 8 µg/mL,1 to 2 µg/mL,16 to 32 µg/mL,4 to 8 µg/mL,16 to 32 µg/mL,16 to 32 µg/mL
"CCN1CCN(C(=O)NC(C(=O)N[C@H]2Cc3cccc(C(=O)O)c3OB2O)c2ccc(C(N)=O)c(O)c2)C(=O)C1=O (stereo partly drawn) [Example 45, (3R)-3-(2-(4-carbamoyl-3-hydroxyphenyl)-2-(4-ethyl-2,3-dioxopiperazine-1-carboxamido)acetamido)-2-hydroxy-3,4-dihydro-2H-benzo[e][1,2]oxaborinine-8-carboxylic acid]",2 to 4 µg/mL,32 to 64 µg/mL,< 0.25 µg/mL,2 to 4 µg/mL,1 to 2 µg/mL,< 0.125 µg/mL,16 to 32 µg/mL,0.25 to 0.5 µg/mL,16 to 32 µg/mL,16 to 32 µg/mL
"CCN1CCN(C(=O)NC(C(=O)N[C@H]2Cc3ccc(OCCN)c(C(=O)O)c3OB2O)c2ccccc2)C(=O)C1=O (stereo partly drawn) [Example 60, (3R)-7-(2-aminoethoxy)-3-(2-(4-ethyl-2,3-dioxopiperazine-1-carboxamido)-2-phenylacetamido)-2-hydroxy-3,4-dihydro-2H-benzo[e][1,2]oxaborinine-8-carboxylic acid]",32 to 64 µg/mL,> 128 µg/mL,32 to 64 µg/mL,32 to 64 µg/mL,> 64 µg/mL,16 to 32 µg/mL,> 64 µg/mL,> 64 µg/mL,> 64 µg/mL,> 64 µg/mL
"NS(=O)(=O)NC(C(=O)N[C@H]1Cc2ccc(F)c(C(=O)O)c2OB1O)c1ncc(O)cc1F (stereo partly drawn) [Example 43, (3R)-7-fluoro-3-(2-(3-fluoro-5-hydroxypyridin-2-yl)-2-(sulfamoylamino)acetamido)-2-hydroxy-3,4-dihydro-2H-benzo[e][1,2]oxaborinine-8-carboxylic acid]",> 128 µg/mL,> 128 µg/mL,> 128 µg/mL,> 128 µg/mL,> 64 µg/mL,> 64 µg/mL,> 64 µg/mL,> 64 µg/mL,> 64 µg/mL,> 64 µg/mL
